Experimental data as given in the supplement of paper PMC10307832.

Legend:
Test in all cases: relative viability (nuclei count vs DMSO), 5 days (fraction); higher = more cells survive
[1] = system: NCI-H1355
Summary of the method: (§1)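 Relative viability divides the nuclei count in treated wells by that in vehicle wells. Lung cancer cell lines were seeded in 1536-well plates, dosed by pin tool the next day, and fixed and stained after 5 days in one step with final 0.05% Triton X-100, 1% formaldehyde and 1 ug/ml Hoechst. Dosing was a single drug or a fixed anchor-drug dose plus five library-drug doses (not always all listed) in √10 steps, and values are medians of duplicate plates imaged at 4×.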

[2] = system: UMC-11
Summary of the method: as §1

[3] = system: RERF-LC-KJ
Summary of the method: as §1

[4] = system: HCC-78
Summary of the method: as §1

[5] = system: SW 1573
Summary of the method: as §1

[6] = system: EPLC-272H
Summary of the method: as §1

[7] = system: NCI-H1755
Summary of the method: as §1

[8] = system: NCI-H1993
Summary of the method: as §1

[9] = system: HARA
Summary of the method: as §1

[10] = system: NCI-H596
Summary of the method: as §1

[11] = system: NCI-H838
Summary of the method: as §1

[12] = system: COR-L 105
Summary of the method: as §1

[13] = system: SK-MES-1
Summary of the method: as §1

Compound: Nc1cccc2c1CN(C1CCC(=O)NC1=O)C2=O (stereo not drawn) [Lenalidomide] + Nc1nc2[nH]cc(CCc3ccc(C(=O)N[C@@H](CCC(=O)O)C(=O)O)cc3)c2c(=O)[nH]1 [Pemetrexed] (partner 0.2 µM)
- relative viability ([1]; first compound 0.253 µM): 1.08
- relative viability ([1]; first compound 0.8 µM): 0.784
- relative viability ([1]; first compound 2.53 µM): 1.13
- relative viability ([1]; first compound 8 µM): 0.738
- relative viability ([2]; first compound 0.253 µM): 0.93
- relative viability ([2]; first compound 0.8 µM): 0.72
- relative viability ([2]; first compound 2.53 µM): 0.84
- relative viability ([2]; first compound 8 µM): 0.8
- relative viability ([3]; first compound 0.253 µM): 0.542
- relative viability ([3]; first compound 0.8 µM): 0.412
- relative viability ([3]; first compound 2.53 µM): 0.503
- relative viability ([3]; first compound 8 µM): 0.503
- relative viability ([4]; first compound 0.253 µM): 0.878
- relative viability ([4]; first compound 0.8 µM): 0.936
- relative viability ([4]; first compound 2.53 µM): 0.886
- relative viability ([4]; first compound 8 µM): 0.937
- relative viability ([5]; first compound 0.253 µM): 0.751
- relative viability ([5]; first compound 0.8 µM): 0.856
- relative viability ([5]; first compound 2.53 µM): 0.98
- relative viability ([5]; first compound 8 µM): 0.812
- relative viability ([6]; first compound 0.253 µM): 0.328
- relative viability ([6]; first compound 2.53 µM): 0.356
- relative viability ([6]; first compound 8 µM): 0.359
- relative viability ([7]; first compound 0.253 µM): 0.441
- relative viability ([7]; first compound 0.8 µM): 0.452
- relative viability ([7]; first compound 2.53 µM): 0.691
- relative viability ([7]; first compound 8 µM): 0.448
- relative viability ([8]; first compound 0.253 µM): 0.554
- relative viability ([8]; first compound 0.8 µM): 0.561
- relative viability ([8]; first compound 2.53 µM): 0.63
- relative viability ([8]; first compound 8 µM): 0.452
- relative viability ([9]; first compound 0.253 µM): 0.258
- relative viability ([9]; first compound 2.53 µM): 0.249
- relative viability ([9]; first compound 8 µM): 0.259
- relative viability ([10]; first compound 0.253 µM): 0.519
- relative viability ([10]; first compound 0.8 µM): 0.4
- relative viability ([10]; first compound 2.53 µM): 0.538
- relative viability ([10]; first compound 8 µM): 0.48
- relative viability ([11]; first compound 0.253 µM): 0.247
- relative viability ([11]; first compound 0.8 µM): 0.265
- relative viability ([11]; first compound 2.53 µM): 0.241
- relative viability ([11]; first compound 8 µM): 0.265
- relative viability ([12]; first compound 0.253 µM): 1.21
- relative viability ([12]; first compound 0.8 µM): 1.16
- relative viability ([12]; first compound 2.53 µM): 1.22
- relative viability ([12]; first compound 8 µM): 1.2
- relative viability ([13]; first compound 0.253 µM): 0.91
- relative viability ([13]; first compound 0.8 µM): 0.823
